In patent publication US20050165006A1, “Quinoline derivatives, their preparation and pharmaceutical compositions comprising the same” (priority 2002, published 2005):
Like-named read-outs stand apart in the source and are kept apart here.

Experiments:
SERT = SERT (Homo sapiens, UniProt P31645); details: known values, background art; read-out: binding affinity (Ki) to SERT; cited from earlier work
[1] = molecular target: serotonin transporter (SERT) (Rattus norvegicus, UniProt P31652); assay: Radioligand binding assay with [3H]citalopram on synaptic membrane; details: for affinity (Ki value) compared with Fluoxetine: comparison in words on Table 3; for activity / binding affinity relative to 6-nitro-2-piperazin-1-yl-quinoline: ratio of Ki values of Table 3
Method: After male SD Rats (250˜350 g) were decapitate by using quillotine, the whole brains were removed. The cerebral cortex were carefully cut to slices and weighed. 0.32 M sucrose which is 10 times of sucrose was added to the slices, and then homogenized twice for 15 seconds using Polytron. After being centrifuged at 4° C. for 10 minutes in 1,000×g, the thus obtained supernatant was re-centrifuged at 20,000×g for 20 minutes and then discarded. The precipitate was isolated, re-suspended in deionized water, was provided with osmotic shock for 10 minutes, and then centrifuged at 80,000×g for 20 minutes. The thus obtained precipitate was suspended in 50 ml of triacetate buffer, re-centrifuged at 48,000×g, and then transferred to a refrigerator. On the day of assay, the cells were thawed on ice, washed by centrifugation (48,000×g, 20 minutes).
The mixture was shaken at 25° C. for 60 minutes, incubated, filtered using a Brandel Cell Harvester through a GF/B Watman filter presoaked in 0.05 polyethylimine. The filters were then washed twice with 5 ml of ice-cold buffer, dried, added with 7 ml of ultima gold scintillation cocktail, and then shaken for 3˜4 hours.

SPF SD line rats = assay: Acute toxicity in rats; format: in vivo
Method: (§1) 6-week old SPF SD line rats were used in the tests for acute toxicity. 6-chloro-2-piperazin-1-yl-quinoline or 4-chloro-6-nitro-2-piperazin-1-yl-quinoline were suspended in 1 ml saline buffer solution and […] administered to anterior tibialis once to 6 rats per group at the dosage of 500 mg/kg. Death, clinical symptoms, and weight change in rats were observed, hematological tests and biochemical tests of blood performed, and any abnormal signs in the gastrointestinal organs of chest and abdomen checked with eyes during autopsy. […]

Acute toxicity in rats = format: in vivo; details: SD, rat, in vivo
Method: as §1

ICR mice = assay: Assay for anti-depression activity using a tail suspension test; format: in vivo; details: for anti-depression effect higher than that of control (immobility time): ICR mice, oral
Method: The inventors carried out the tail suspension test to evaluate an anti-depression activity of the present compound. ICR mice were divided into 5 groups made up of 8 subjects, and orally dosed with 4-chloro-6-nitro-2-piperazin-1-yl-quinoline dissolved in saline buffer solution in a variety of its concentration 60 minutes prior to the beginning of the experiment. The evaluation of the activity was estimated using administering group, negative, and positive group. After suspending the animal by the tail induced the immobility, the immobility time was measured 6 minutes watching a recorded tape for video. The final data was obtained an average value measured by 3 persons to accurate the data.

depression-induced mice = assay: Assay for anti-depression activity using a forced swimming test; format: in vivo; details: orally administered, 50 mg/kg (FIG. 1), p<0.003
Method: After 4-chloro-6-nitro-2-piperazin-1-yl-quinoline was dissolved in dimethylsulfoxide in a variety of concentrations and injected to depression-induced mice, the time of immobility was measured. The immobility time may be evaluated by measuring the effect against anti-depression. Because immobility means a helplessness of the mice, in this case, slow immobility should be understood to reduce depression.
4-chloro-6-nitro-2-piperazin-1-yl-quinoline was orally administered after 23 hours from the first treatment, subsequently, after 24 hours, the animals were placed in the cage to carry out the second treatment and the immobility time was measured for 5 minutes. The immobility caused by the second treatment was recorded while watching video tape. In order to make an objective observation, we made an average of the results of make than 3 people.

[2] = 1 nM [3H]citalopram, rat cerebral cortex synaptic membrane, 25° C., 60 minutes

serotonin transporter (SERT), sequence (P31652 whole entry): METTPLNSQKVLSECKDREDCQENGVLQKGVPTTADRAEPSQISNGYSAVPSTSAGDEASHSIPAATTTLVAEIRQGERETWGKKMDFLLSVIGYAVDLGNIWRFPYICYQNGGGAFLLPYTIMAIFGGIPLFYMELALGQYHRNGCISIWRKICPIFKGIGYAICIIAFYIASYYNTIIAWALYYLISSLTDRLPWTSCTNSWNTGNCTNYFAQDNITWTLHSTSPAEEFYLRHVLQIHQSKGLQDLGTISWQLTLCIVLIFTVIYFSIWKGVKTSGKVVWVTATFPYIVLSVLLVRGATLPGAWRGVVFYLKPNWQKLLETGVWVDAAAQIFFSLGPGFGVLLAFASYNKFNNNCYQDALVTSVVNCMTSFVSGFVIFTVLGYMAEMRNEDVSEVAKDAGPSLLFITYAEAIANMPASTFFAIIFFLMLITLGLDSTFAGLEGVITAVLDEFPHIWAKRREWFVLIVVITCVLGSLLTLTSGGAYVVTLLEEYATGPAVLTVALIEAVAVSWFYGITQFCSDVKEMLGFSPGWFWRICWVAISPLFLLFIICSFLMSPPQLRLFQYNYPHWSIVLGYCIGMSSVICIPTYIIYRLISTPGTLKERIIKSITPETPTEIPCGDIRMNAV
SERT, sequence (P31645 whole entry, species assumed): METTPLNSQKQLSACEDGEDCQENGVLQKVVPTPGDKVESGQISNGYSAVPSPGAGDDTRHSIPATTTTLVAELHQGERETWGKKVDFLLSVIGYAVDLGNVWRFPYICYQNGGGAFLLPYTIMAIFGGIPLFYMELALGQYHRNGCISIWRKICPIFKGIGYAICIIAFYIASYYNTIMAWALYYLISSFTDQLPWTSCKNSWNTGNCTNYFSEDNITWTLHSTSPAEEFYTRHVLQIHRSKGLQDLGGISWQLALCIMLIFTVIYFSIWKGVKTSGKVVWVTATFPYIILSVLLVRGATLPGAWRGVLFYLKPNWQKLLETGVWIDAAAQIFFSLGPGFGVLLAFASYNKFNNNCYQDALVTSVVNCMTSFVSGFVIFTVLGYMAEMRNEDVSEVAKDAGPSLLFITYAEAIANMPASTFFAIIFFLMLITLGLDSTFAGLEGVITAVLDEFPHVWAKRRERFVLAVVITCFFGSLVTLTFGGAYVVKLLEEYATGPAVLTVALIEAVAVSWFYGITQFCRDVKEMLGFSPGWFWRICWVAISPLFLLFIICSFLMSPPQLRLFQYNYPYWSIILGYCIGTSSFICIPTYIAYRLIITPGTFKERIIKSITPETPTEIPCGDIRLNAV

SMILES | Ki [1, 2] | Ki [1] | also measured
O=[N+]([O-])c1ccc2nc(N3CCNCC3)ccc2c1 [6-nitro-2-piperazin-1-yl-quinoline, 6-nitro-2-(piperazin-1-yl)quinoline, reference compound] | 0.17 ± 0.03 nM | – | Ki (SERT): 0.018 nM
Cc1cc2cc([N+](=O)[O-])ccc2nc1N1CCNCC1 [Example 1, 3-methyl-6-nitro-2-(piperazin-1-yl)quinoline] | – | 8.45 ± 0.62 nM | –
CCc1cc2cc([N+](=O)[O-])ccc2nc1N1CCNCC1 [Example 2, 3-ethyl-6-nitro-2-(piperazin-1-yl)quinoline] | – | 0.36 ± 0.02 nM | affinity (Ki value) compared with Fluoxetine [1]: exceed that of Fluoxetine
CCCc1cc2cc([N+](=O)[O-])ccc2nc1N1CCNCC1 [Example 3, 6-nitro-2-(piperazin-1-yl)-3-propylquinoline] | – | 0.26 ± 0.01 nM | affinity (Ki value) compared with Fluoxetine [1]: exceed that of Fluoxetine
O=[N+]([O-])c1ccc2nc(N3CCNCC3)c(CCCCl)cc2c1 [Example 4, 3-(3-chloropropyl)-6-nitro-2-piperazin-1-yl-quinoline] | – | 1.08 ± 0.17 nM | –
O=[N+]([O-])c1ccc2nc(N3CCNCC3)c(CCCF)cc2c1 [Example 5, 3-(3-fluoropropyl)-6-nitro-2-piperazin-1-yl-quinoline] | 0.32 ± 0.01 nM | – | affinity (Ki value) compared with Fluoxetine [1]: exceed that of Fluoxetine
Ic1ccc2nc(N3CCNCC3)ccc2c1 [Example 6, 6-iodo-2-piperazin-1-yl-quinoline] | 6.6 ± 0.52 nM | – | –
Brc1ccc2nc(N3CCNCC3)ccc2c1 [Example 7, 6-bromo-2-piperazin-1-yl-quinoline] | 0.91 ± 0.07 nM | – | –
Clc1ccc2nc(N3CCNCC3)ccc2c1 [Example 8, 6-chloro-2-piperazin-1-yl-quinoline] | 1.68 ± 0.13 nM | – | acute toxicity observations (death, clinical symptoms, weight change) (SPF SD line rats; rats, single administration of 500 mg/kg, 6 rats per group): did not cause any specific clinical symptoms, weight change, or death; LD50 (Acute toxicity in rats; rats, single administration of 500 mg/kg, read-out: estimated LD50): > 500 mg/kg
O=[N+]([O-])c1ccc2nc(N3CCNCC3)c(Br)cc2c1 [Example 9, 3-bromo-6-nitro-2-(piperazin-1-yl)quinoline] | 12.6 ± 1.14 nM | – | –
O=[N+]([O-])c1ccc2nc(N3CCNCC3)cc(Cl)c2c1 [Example 10, 4-chloro-6-nitro-2-(piperazin-1-yl)quinoline] | – | 0.017 nM | effect higher than that of the control (immobility time) (ICR mice; FIG. 2B, 1 mg/kg or 10 mg/kg, anova p<0.005): about 65%; anti-depression effect higher than that of control (immobility time) (ICR mice; 5 mg/kg): 56%; anti-depression effect higher than that of control (immobility time) (ICR mice; 50 mg/kg): 60%; ED50 (ICR mice; Mus musculus, expected from evenness of effect from 1 to 50 mg/kg): < 1 mg/kg; acute toxicity observations (death, clinical symptoms, weight change) (SPF SD line rats; rat, in vivo, 500 mg/kg): did not cause any specific clinical symptoms, weight change, or death; LD50 (Acute toxicity in rats; 500 mg/kg): > 500 mg/kg; anti-depression effect higher than that of the control (immobility time) (depression-induced mice): 30%; activity / binding affinity relative to 6-nitro-2-piperazin-1-yl-quinoline [1]: 10 times; activity / binding affinity relative to 6-nitro-2-piperazin-1-yl-quinoline ([1]; listed as 4-chloro-6-nitro-2-piperazin-1-yl-quinoline): over ten times
C=Cc1cc(N2CCNCC2)nc2ccc([N+](=O)[O-])cc12 [Example 13, 6-nitro-2-(piperazin-1-yl)-4-vinylquinoline] | – | 1.42 nM | –
O=[N+]([O-])c1ccc2nc(N3CCNCC3)cc(-c3ccco3)c2c1 [Example 14, 4-(2-furanyl)-6-nitro-2-(piperazin-1-yl)quinoline] | – | 6.4 nM | –
CC1CN(c2ccc3cc([N+](=O)[O-])ccc3n2)CCN1 (stereo not shown) [Example 15, 2-(3-methylpiperazin-1-yl)-6-nitroquinoline] | 22.2 ± 1.7 nM | – | –
CNCCN(C)c1ccc2cc([N+](=O)[O-])ccc2n1 [Example 16, 2-(N-methyl-N-(2-N′-methylamino)ethyl)amino-6-nitroquinoline] | 8.43 ± 0.45 nM | – | –
O=[N+]([O-])c1ccc2nc(N3CCCNCC3)ccc2c1 [Example 17, 2-[1,4]diazepin-1-yl-6-nitroquinoline] | 1.9 ± 0.15 nM | – | –
